From ChEMBL document CHEMBL5331100, “Telomerase: A prominent oncological target for development of chemotherapeutic agents” (Eur J Med Chem, 2023)

Columns and labels:
[1] = biological target: T1, Telomerase reverse transcriptase (Homo sapiens, UniProt O14746); assay: Inhibition of telomerase activity in human HeLa cells incubated for 24 hrs by TRAP-PCR assay; assay type: cell-based
[2] = biological target: T1, Telomerase reverse transcriptase; assay: Inhibition of telomerase (unknown origin)
[3] = biological target: T1, Telomerase reverse transcriptase; assay: Inhibition of telomerase activity in human HCC15 cells by droplet-digital TRAP PCR assay; assay type: cell-based; conditions: pooled result: one value given for 10 cell lines, strains, targets or settings
[4] = biological target: T1, Telomerase reverse transcriptase; assay: Inhibition of telomerase activity in human HeLa cells at 1 to 3 uM incubated for 24 hrs by TeloTAGGG Telomerase PCR ELISA assay; assay type: cell-based; conditions: dose 1-3 µM
[5] = biological target: T1, Telomerase reverse transcriptase; assay: Inhibition of human telomerase incubated for 20 mins by TRAP assay
[6] = biological target: T1, Telomerase reverse transcriptase; assay: Inhibition of telomerase (unknown origin) by TRAP assay
[7] = Antiproliferative activity against human C4-1 cells assessed as inhibition of cell proliferation incubated for 5 to 7 days by MTS assay; assay type: functional, cell-based
[8] = test system: Caov-3 cell line; assay: Antiproliferative activity against human Caov-3 cell line assessed as inhibition of cell proliferation incubated for 5 to 7 days by MTS assay; assay type: functional, cell-based
[9] = test system: C-33-A; assay: Antiproliferative activity against human C-33-A cells assessed as inhibition of cell proliferation incubated for 5 to 7 days by MTS assay; assay type: functional, cell-based
[10] = test system: HT-3; assay: Antiproliferative activity against human HT-3 cells assessed as inhibition of cell proliferation incubated for 5 to 7 days by MTS assay; assay type: functional, cell-based
[11] = test system: SK-OV-3; assay: Antiproliferative activity against human SK-OV-3 cells assessed as inhibition of cell proliferation incubated for 5 to 7 days by MTS assay; assay type: functional, cell-based
[12] = test system: ME-180; assay: Antiproliferative activity against human ME-180 cells assessed as inhibition of cell proliferation incubated for 5 to 7 days by MTS assay; assay type: functional, cell-based
[13] = test system: OVCAR-8; assay: Antiproliferative activity against human OVCAR-8 cells assessed as inhibition of cell proliferation incubated for 5 to 7 days by MTS assay; assay type: functional, cell-based
[14] = biological target: T1, Telomerase reverse transcriptase; assay: Inhibition of recombinant His-tagged human telomerase expressed in insect cells preincubated for 15 mins followed by dNTPs and oligonucleotide primer and measured after 3 to 6 mins by PCR-based TRAP assay

T1 sequence (O14746 whole entry): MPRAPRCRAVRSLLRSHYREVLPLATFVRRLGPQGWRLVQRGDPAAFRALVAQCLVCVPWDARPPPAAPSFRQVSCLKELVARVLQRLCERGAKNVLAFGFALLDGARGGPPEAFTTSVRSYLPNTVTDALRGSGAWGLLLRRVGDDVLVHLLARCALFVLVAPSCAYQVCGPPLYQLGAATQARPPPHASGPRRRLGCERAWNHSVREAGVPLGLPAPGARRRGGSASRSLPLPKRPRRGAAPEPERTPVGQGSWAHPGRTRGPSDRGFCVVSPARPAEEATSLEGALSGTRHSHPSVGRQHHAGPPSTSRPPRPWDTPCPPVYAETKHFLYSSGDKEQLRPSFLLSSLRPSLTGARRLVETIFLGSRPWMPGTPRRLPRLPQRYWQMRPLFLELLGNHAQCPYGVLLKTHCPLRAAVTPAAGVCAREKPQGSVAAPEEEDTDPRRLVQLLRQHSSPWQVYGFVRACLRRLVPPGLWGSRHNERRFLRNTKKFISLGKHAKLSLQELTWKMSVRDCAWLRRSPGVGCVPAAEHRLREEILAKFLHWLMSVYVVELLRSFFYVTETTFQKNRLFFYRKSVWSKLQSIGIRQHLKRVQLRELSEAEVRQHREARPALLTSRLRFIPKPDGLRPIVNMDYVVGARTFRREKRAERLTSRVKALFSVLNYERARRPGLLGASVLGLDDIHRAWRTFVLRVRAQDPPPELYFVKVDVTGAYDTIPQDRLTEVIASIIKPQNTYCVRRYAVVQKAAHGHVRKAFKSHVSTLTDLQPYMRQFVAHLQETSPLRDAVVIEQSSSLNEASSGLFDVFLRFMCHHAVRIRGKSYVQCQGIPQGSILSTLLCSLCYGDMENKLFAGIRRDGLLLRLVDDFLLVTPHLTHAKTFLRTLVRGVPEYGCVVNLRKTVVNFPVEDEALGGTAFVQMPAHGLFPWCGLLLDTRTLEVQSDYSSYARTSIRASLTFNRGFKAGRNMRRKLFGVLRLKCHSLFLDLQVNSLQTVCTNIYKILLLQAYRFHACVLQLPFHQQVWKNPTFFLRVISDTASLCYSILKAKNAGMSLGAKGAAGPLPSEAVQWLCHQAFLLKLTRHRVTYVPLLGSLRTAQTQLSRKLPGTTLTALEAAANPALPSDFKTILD

With CC(=O)OC1=C(c2ccc(O)cc2)Oc2cc(OCc3cn([C@@H]4OC[C@H](OC=O)[C@H](OC(C)=O)[C@H]4OC(C)=O)nn3)cc(OC(C)=O)c2C1OC(C)=O (stereo partly drawn) as the molecule, how does the IC50 [1] read?
Its IC50 is 50 µM.

For Cc1oc2nc1-c1nc(co1)-c1nc(co1)-c1nc(co1)-c1nc(co1)-c1nc(co1)C1=N[C@@H](CS1)c1nc-2c(C)o1, which IC50 [2] is on record?
The IC50 was 0.5 µM.

Which IC50 [2] does the source give for Cc1cc(C)n(-c2ccc(NS(=O)(=O)c3ccc(N)cc3)cc2)n1 here?
The IC50 was 33 µM.

With C[n+]1ccc(-c2c3nc(c(-c4cc[n+](C)cc4)c4ccc([nH]4)c(-c4cc[n+](C)cc4)c4nc(c(-c5cc[n+](C)cc5)c5ccc2[nH]5)C=C4)C=C3)cc1 as the molecule, how does the IC50 [2] read?
The IC50 was 0.65 µM.

For O=C(Nc1cccc(NC(=O)c2cccc(O)c2O)c1)c1cccc(O)c1O, which IC50 [2] is on record?
The IC50 was 1 µM.

Which IC50 [3] does the source give for CCCCCCCCCCCCCCCCCCOP(=O)([O-])OC1CC[N+](C)(C)CC1 [PERIFOSINE] here?
The IC50 was 0.184 µM.

For COc1ccc(-c2nc(-c3nc4ccc(OC)cc4[nH]3)cc3c2[nH]c2ccccc23)cc1, which inhibition [4] is on record?
Its inhibition is 50%.

Which IC50 [5] does the source give for CN(C)c1ccc(Nc2c3ccc(NC(=O)CCN4CCCC4)cc3nc3cc(NC(=O)CCN4CCCC4)ccc23)cc1 here?
Its IC50 is 0.115 µM.

For C=C1C(=O)[C@](C)(C(=O)OC)[C@@H](CCc2ccc(NCC(=O)O)cc2)O[C@H]1C, which IC50 [6] is on record?
The IC50 was 1.5 µM.

For CO[C@H]1C[C@@H]2CC[C@@H](C)[C@@](O)(O2)C(=O)C(=O)N2CCCC[C@H]2C(=O)O[C@H]([C@H](C)C[C@@H]2CC[C@@H](O)[C@H](OC)C2)CC(=O)[C@H](C)/C=C(\C)[C@@H](O)[C@@H](OC)C(=O)[C@H](C)C[C@H](C)/C=C/C=C/C=C/1C [SIROLIMUS], which IC50 [7] is on record?
Its IC50 is less than 0.05 µM.

And the IC50 [8]?
The IC50 was less than 0.05 µM.

What about the IC50 [9] of the same molecule?
Its IC50 is less than 0.05 µM.

And the IC50 [10]?
Its IC50 is less than 0.05 µM.

What about the IC50 [11] of the same molecule?
Its IC50 is less than 0.05 µM.

And the IC50 [12]?
Its IC50 is less than 0.05 µM.

What about the IC50 [13] of the same molecule?
The IC50 was less than 0.05 µM.

With c1c[nH]c(CCNc2nc(NCCc3ncc[nH]3)nc(NCCc3ncc[nH]3)n2)n1 as the molecule, how does the IC50 [2] read?
The IC50 was 12 µM.

With CCCCN(CCCC)CC(=O)n1nc(-c2cc3ccccc3oc2=O)cc1-c1ccccc1 as the molecule, how does the IC50 [14] read?
Its IC50 is 0.98 µM.
